Reference: US20100298141A1, “SUBSTITUTED PYRIDINE N-OXIDE HERBICIDES” (E. I. DU PONT DE NEMOURS AND COMPANY, priority 2007, published 2010)

Tests used:
annual bluegrass = assay: Test D preemergence test; assay type: in vivo, Poa annua; conditions: scale 0 to 100
Excerpt: (§1) Seeds of plant species selected from annual bluegrass (Poa annua), blackgrass (Alopecurus myosuroides), downy bromegrass (Bromus tectorum), field violet (Viola arvensis), green foxtail (Setaria viridis), Italian ryegrass (Lolium multiflorum), littleseed canarygrass (Phalaris minor), spring wheat (Triticum aestivum), wild oat (Avena fatua), […]), winter barley (Hordeum vulgare), and winter wheat (Triticum aestivum) were planted and treated preemergence with test chemicals formulated in a non-phytotoxic solvent mixture which included a surfactant. […] A dash (-) response means no test result.

downy bromegrass = assay: Test D preemergence test; assay type: in vivo, Bromus tectorum; conditions: scale 0 to 100
Excerpt: as §1

field violet = assay: Test D preemergence test; assay type: in vivo, Viola arvensis; conditions: scale 0 to 100
Excerpt: as §1

Italian ryegrass = assay: Test D preemergence test; assay type: in vivo, Lolium multiflorum; conditions: scale 0 to 100
Excerpt: as §1

littleseed canarygrass = assay: Test D preemergence test; assay type: in vivo, Phalaris minor; conditions: scale 0 to 100
Excerpt: as §1

spring wheat = assay: Test D preemergence test; assay type: in vivo, Triticum aestivum; conditions: scale 0 to 100
Excerpt: as §1

winter wheat = assay: Test D preemergence test; assay type: in vivo, Triticum aestivum; conditions: scale 0 to 100
Excerpt: as §1

wild oat = assay: Test D preemergence test; assay type: in vivo, Avena fatua; conditions: scale 0 to 100
Excerpt: as §1

winter barley = assay: Test D preemergence test; assay type: in vivo, Hordeum vulgare
Excerpt: as §1

broadleaf signalgrass = assay: Test G preemergence test; assay type: in vivo, Brachiaria platyphylla; conditions: scale 0 to 100
cotton = assay: Test G preemergence test; assay type: in vivo, Gossypium hirsutum; conditions: scale 0 to 100
eastern black nightshade = assay: Test G preemergence test; assay type: in vivo, Solanum ptycanthum; conditions: scale 0 to 100
fall panicum = assay: Test G preemergence test; assay type: in vivo, Panicum dichotomiflorum; conditions: scale 0 to 100
giant foxtail = assay: Test G preemergence test; assay type: in vivo, Setaria faberii; conditions: scale 0 to 100
goosegrass = assay: Test G preemergence test; assay type: in vivo, Eleusine indica; conditions: scale 0 to 100
itchgrass = assay: Test G preemergence test; assay type: in vivo, Rottboellia cochinchinensis; conditions: scale 0 to 100
large crabgrass = assay: Test G preemergence test; assay type: in vivo, Digitaria sanguinalis; conditions: scale 0 to 100
millet = assay: Test G preemergence test; assay type: in vivo, Panicum miliaceum; conditions: scale 0 to 100
millet foxtail = assay: Test G preemergence test; assay type: in vivo, Setaria italica; conditions: scale 0 to 100
sorghum = assay: Test G preemergence test; assay type: in vivo, Sorghum vulgare; conditions: scale 0 to 100
yellow foxtail = assay: Test G preemergence test; assay type: in vivo, Pennisetum glaucum; conditions: scale 0 to 100
yellow nutsedge = assay: Test G preemergence test; assay type: in vivo, Cyperus esculentus; conditions: scale 0 to 100
woolly cupgrass = assay: Test G preemergence test; assay type: in vivo, Eriochloa villosa; conditions: scale 0 to 100

Cn1nc(C(F)(F)F)c(C(Cl)S(=O)(=O)c2cccc[n+]2[O-])c1Cl (centres unmarked) [Compound 12] was tested, and the “Plant response rating, Bluegrass” value (annual bluegrass; 31 g ai/ha) was 60, the “Plant response rating, Bluegrass” value (annual bluegrass; 62 g ai/ha) was 100 and the “Plant response rating, Bluegrass” value (annual bluegrass; 125 g ai/ha) was 100. For the same molecule, the “Plant response rating, Bluegrass” value (annual bluegrass; 250 g ai/ha) was 100, the “Plant response rating, Bromegrass, Downy” value (downy bromegrass; 31 g ai/ha) was 0 and the “Plant response rating, Bromegrass, Downy” value (downy bromegrass; 62 g ai/ha) was 0. The “Plant response rating, Bromegrass, Downy” value (downy bromegrass; 125 g ai/ha) was 60, the “Plant response rating, Bromegrass, Downy” value (downy bromegrass; 250 g ai/ha) was 60 and the “Plant response rating, Field Violet” value (field violet; 31 g ai/ha) was 0. The “Plant response rating, Field Violet” value (field violet; 62 g ai/ha) was 0, the “Plant response rating, Field Violet” value (field violet; 125 g ai/ha) was 0 and the “Plant response rating, Field Violet” value (field violet; 250 g ai/ha) was 40. The “Plant response rating, Ryegrass, Italian” value (Italian ryegrass; 31 g ai/ha) was 0, the “Plant response rating, Ryegrass, Italian” value (Italian ryegrass; 62 g ai/ha) was 0 and the “Plant response rating, Ryegrass, Italian” value (Italian ryegrass; 125 g ai/ha) was 70. For the same molecule, the “Plant response rating, Ryegrass, Italian” value (Italian ryegrass; 250 g ai/ha) was 100, the “Plant response rating, Canarygrass” value (littleseed canarygrass; 31 g ai/ha) was 0 and the “Plant response rating, Canarygrass” value (littleseed canarygrass; 62 g ai/ha) was 0. For the same molecule, the “Plant response rating, Canarygrass” value (littleseed canarygrass; 125 g ai/ha) was 75, the “Plant response rating, Canarygrass” value (littleseed canarygrass; 250 g ai/ha) was 100 and the “Plant response rating, Wheat, Spring” value (spring wheat; 31 g ai/ha) was 0. The “Plant response rating, Wheat, Spring” value (spring wheat; 62 g ai/ha) was 0, the “Plant response rating, Wheat, Spring” value (spring wheat; 125 g ai/ha) was 0 and the “Plant response rating, Wheat, Spring” value (spring wheat; 250 g ai/ha) was 0. The “Plant response rating, Wheat, Winter” value (winter wheat; 31 g ai/ha) was 0, the “Plant response rating, Wheat, Winter” value (winter wheat; 62 g ai/ha) was 0 and the “Plant response rating, Wheat, Winter” value (winter wheat; 125 g ai/ha) was 0. For the same molecule, the “Plant response rating, Wheat, Winter” value (winter wheat; 250 g ai/ha) was 0, the “Plant response rating, Oat, Wild” value (wild oat; 31 g ai/ha) was 0 and the “Plant response rating, Oat, Wild” value (wild oat; 62 g ai/ha) was 0. For the same molecule, the “Plant response rating, Oat, Wild” value (wild oat; 125 g ai/ha) was 0, the “Plant response rating, Oat, Wild” value (wild oat; 250 g ai/ha) was 0 and the “Plant response rating, Barley” value (winter barley; Preemergence, 62 g ai/ha, scale 0 to 100) was 0. The “Plant response rating, Barley” value (winter barley; Preemergence, 125 g ai/ha, scale 0 to 100) was 0, the “Plant response rating, Barley” value (winter barley; Preemergence, 31 g ai/ha, scale 0 to 100) was 0 and the “Plant response rating, Barley” value (winter barley; preemergence, 250 g ai/ha, scale 0 (no effect) to 100 (complete control)) was 0. The “Plant response rating, Signalgrass” value (broadleaf signalgrass; 31 g ai/ha) was 0, the “Plant response rating, Signalgrass” value (broadleaf signalgrass; 62 g ai/ha) was 0 and the “Plant response rating, Signalgrass” value (broadleaf signalgrass; 125 g ai/ha) was 75. The “Plant response rating, Signalgrass” value (broadleaf signalgrass; 250 g ai/ha) was 75, the “Plant response rating, Cotton” value (cotton; 31 g ai/ha) was 0 and the “Plant response rating, Cotton” value (cotton; 62 g ai/ha) was 0. For the same molecule, the “Plant response rating, Cotton” value (cotton; 125 g ai/ha) was 0, the “Plant response rating, Cotton” value (cotton; 250 g ai/ha) was 0 and the “Plant response rating, Nightshade” value (eastern black nightshade; 31 g ai/ha) was 0. The “Plant response rating, Nightshade” value (eastern black nightshade; 62 g ai/ha) was 0, the “Plant response rating, Nightshade” value (eastern black nightshade; 125 g ai/ha) was 0 and the “Plant response rating, Nightshade” value (eastern black nightshade; 250 g ai/ha) was 70. For the same molecule, the “Plant response rating, Fall Panicum” value (fall panicum; 31 g ai/ha) was 90, the “Plant response rating, Fall Panicum” value (fall panicum; 62 g ai/ha) was 100 and the “Plant response rating, Fall Panicum” value (fall panicum; 125 g ai/ha) was 100. For the same molecule, the “Plant response rating, Fall Panicum” value (fall panicum; 250 g ai/ha) was 100, the “Plant response rating, Foxtail, Giant” value (giant foxtail; 31 g ai/ha) was 45 and the “Plant response rating, Foxtail, Giant” value (giant foxtail; 62 g ai/ha) was 75. For the same molecule, the “Plant response rating, Foxtail, Giant” value (giant foxtail; 125 g ai/ha) was 100, the “Plant response rating, Foxtail, Giant” value (giant foxtail; 250 g ai/ha) was 100 and the “Plant response rating, Goosegrass” value (goosegrass; 31 g ai/ha) was 100. For the same molecule, the “Plant response rating, Goosegrass” value (goosegrass; 62 g ai/ha) was 100, the “Plant response rating, Goosegrass” value (goosegrass; 125 g ai/ha) was 100 and the “Plant response rating, Goosegrass” value (goosegrass; 250 g ai/ha) was 100. The “Plant response rating, Itchgrass” value (itchgrass; 31 g ai/ha) was 0, the “Plant response rating, Itchgrass” value (itchgrass; 62 g ai/ha) was 0 and the “Plant response rating, Itchgrass” value (itchgrass; 125 g ai/ha) was 0. For the same molecule, the “Plant response rating, Itchgrass” value (itchgrass; 250 g ai/ha) was 0, the “Plant response rating, Crabgrass, Large” value (large crabgrass; 31 g ai/ha) was 15 and the “Plant response rating, Crabgrass, Large” value (large crabgrass; 62 g ai/ha) was 60. For the same molecule, the “Plant response rating, Crabgrass, Large” value (large crabgrass; 125 g ai/ha) was 95, the “Plant response rating, Crabgrass, Large” value (large crabgrass; 250 g ai/ha) was 100 and the “Plant response rating, Millet” value (millet; 31 g ai/ha) was 50. The “Plant response rating, Millet” value (millet; 62 g ai/ha) was 50, the “Plant response rating, Millet” value (millet; 125 g ai/ha) was 100 and the “Plant response rating, Millet” value (millet; 250 g ai/ha) was 100. For the same molecule, the “Plant response rating, Foxtail, Millet” value (millet foxtail; 31 g ai/ha) was 45, the “Plant response rating, Foxtail, Millet” value (millet foxtail; 62 g ai/ha) was 75 and the “Plant response rating, Foxtail, Millet” value (millet foxtail; 125 g ai/ha) was 100. For the same molecule, the “Plant response rating, Foxtail, Millet” value (millet foxtail; 250 g ai/ha) was 100, the “Plant response rating, Sorghum” value (sorghum; 31 g ai/ha) was 0 and the “Plant response rating, Sorghum” value (sorghum; 62 g ai/ha) was 0. For the same molecule, the “Plant response rating, Sorghum” value (sorghum; 125 g ai/ha) was 60, the “Plant response rating, Sorghum” value (sorghum; 250 g ai/ha) was 100 and the “Plant response rating, Foxtail, Yellow” value (yellow foxtail; 31 g ai/ha) was 95. The “Plant response rating, Foxtail, Yellow” value (yellow foxtail; 62 g ai/ha) was 100, the “Plant response rating, Foxtail, Yellow” value (yellow foxtail; 125 g ai/ha) was 100 and the “Plant response rating, Foxtail, Yellow” value (yellow foxtail; 250 g ai/ha) was 100. The “Plant response rating, Nutsedge, Yellow” value (yellow nutsedge; 31 g ai/ha) was 0, the “Plant response rating, Nutsedge, Yellow” value (yellow nutsedge; 62 g ai/ha) was 0 and the “Plant response rating, Nutsedge, Yellow” value (yellow nutsedge; 125 g ai/ha) was 0. For the same molecule, the “Plant response rating, Nutsedge, Yellow” value (yellow nutsedge; 250 g ai/ha) was 20, the “Plant response rating, Cupgrass, Woolly” value (woolly cupgrass; 31 g ai/ha) was 0 and the “Plant response rating, Cupgrass, Woolly” value (woolly cupgrass; 62 g ai/ha) was 0. For the same molecule, the “Plant response rating, Cupgrass, Woolly” value (woolly cupgrass; 125 g ai/ha) was 65 and the “Plant response rating, Cupgrass, Woolly” value (woolly cupgrass; 250 g ai/ha) was 70.
